Reference: patent US20100167311A1, “Oxidoreductases and Processes Utilising Such Enzymes” (priority 2006, published 2010)

How the values were obtained:
type-1 site of NiR M150G [1] = biological target: T1, type-1 site of NiR M150G (Alcaligenes faecalis, UniProt P38501, M186G); test: biochemical; format: binding, A. faecalis S-6
T1 construct: His tag (C, cleaved yes); made in house
From the text: Spectroscopy and assays—The spectrophotometer was a Perkin Elmer Instruments Lambda 800.

type-1 site of NiR M150G [2] = biological target: T1, type-1 site of NiR M150G; format: binding, A. faecalis S-6; settings: versus NHE, NiR M150G with external ligand bound, interpreted as upper limit
Description: Potentiometric titrations—Potentiometric titrations were carried out as described by Dutton (47) in a cuvette held at 298 K in 100 mM potassium phosphate pH 7.0. The NiR concentration was typically 40 mM. Diaminodurol (2,3,5,6-tetramethyl-1,4-phenylenediamine) was used as a redox mediator at 100-200 μM. Potassium ferricyanide and sodium dithionite were used to change the potential of the solution. Visible absorption and the potential of the solution were monitored until both were stable. Spectra were recorded in the range of 510-800 nm since diaminodurol gives negligible absorbance in this region.
The recorded spectra were integrated using a routine written in Igor Pro (WaveMetrics Inc.). For base line correction this routine approximated the scattering contributions (due to aggregated protein) either by a linear approximation or by a method described elsewhere (48). […] The integrated absorbance versus potential was fitted to the Nernst equation with the number of electrons held at one. […]
in which EM^NL is the reduction potential without ligand, [L] denotes the free ligand concentration, KD^ox and KD^red are the ligand dissociation constants from the oxidized and reduced type-1 site respectively, R is the gas constant, F is the Faraday constant and T is the absolute temperature. […] The midpoint potential of the type-1 site with the external ligand bound (EM^L) was calculated from equation 2. […]

NiR M150G = biological target: T2, NiR M150G (Alcaligenes faecalis, UniProt P38501, M186G); test: Activity assay monitoring oxidation of pseudoazurin, NiR M150G with external ligands; format: biochemical, A. faecalis S-6; settings: for effect of external ligand on catalytic activity of NiR M150G: in words; for kcat^sat of NiR M150G saturated with external ligand: pseudoazurin 275-325 μM, nitrite 5 mM, 50 mM Mops pH 7.0
T2 construct: His tag (C, cleaved yes); made in house
T2 sequence (P38501 other isoform, or with tags, fused parts or gaps M186G): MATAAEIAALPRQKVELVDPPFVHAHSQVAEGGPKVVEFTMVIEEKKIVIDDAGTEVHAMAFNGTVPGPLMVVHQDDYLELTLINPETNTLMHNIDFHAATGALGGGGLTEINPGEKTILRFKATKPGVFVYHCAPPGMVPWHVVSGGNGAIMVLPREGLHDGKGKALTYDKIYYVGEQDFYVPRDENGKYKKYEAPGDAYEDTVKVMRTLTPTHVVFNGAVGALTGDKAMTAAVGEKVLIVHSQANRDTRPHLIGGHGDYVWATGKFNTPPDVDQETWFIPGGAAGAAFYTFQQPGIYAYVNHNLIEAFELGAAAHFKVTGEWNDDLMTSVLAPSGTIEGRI
Description: (§1) Activity assays were carried out by monitoring the oxidation of pseudoazurin as described (3). The concentrations of the electron donor pseudoazurin (275-325 μM) and the electron acceptor nitrite (5 mM) were saturating. The concentration of NiR was typically 1 nM. The buffer for activity assays was always 50 mM Mops pH 7.0. Whenever using volatile compounds, the cuvette was sealed with a PTFE stopper. All reported activities were calculated from initial rates. Apparent dissociation constants (KD^app) were obtained from a least-squares fit of activity (v) versus ligand concentration to v=v^NoLigand+Δv×[L]/(KD^app+[L]). The meaning of KD^app will be explained in the Discussion section.

wt NiR = biological target: T3, wt NiR (Alcaligenes faecalis, UniProt P38501); test: Activity assay monitoring oxidation of pseudoazurin, wt NiR with external ligands; format: biochemical, A. faecalis S-6; settings: for effect of external ligand on catalytic activity of wt NiR: in words
T3 construct: His tag (C, cleaved yes); made in house
Description: as §1

pseudoazurin [3] = biological target: T4, pseudoazurin (UniProt P04377)
T4 sequence: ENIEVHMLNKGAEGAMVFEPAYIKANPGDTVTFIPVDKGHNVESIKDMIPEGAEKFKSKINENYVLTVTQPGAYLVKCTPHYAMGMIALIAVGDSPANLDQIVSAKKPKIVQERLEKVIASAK

[4] = in words; cited from earlier work
pseudoazurin [5] = test: Catalytic activity of NiR variants with the physiological electron donor pseudoazurin and nitrite; format: biochemical, A. faecalis S-6; settings: no external ligand; pseudoazurin 275-325 μM, nitrite 5 mM, 50 mM Mops pH 7.0
Description: as §1

pseudoazurin, P04377 = biological target: T5, pseudoazurin, P04377
T5 chain: T4 sequence

T1 sequence (P38501 other isoform, or with tags, fused parts or gaps M186G): as the sequence (P38501 other isoform, or with tags, fused parts or gaps M186G) above

Cc1cscn1 [4-methylthiazole]
Kd (type-1 site of NiR M150G [1]): 22 ± 3 mM

CC(N)=O [acetamide]
Kd (type-1 site of NiR M150G [1]): 71 ± 3 mM
fitted reduction potential with ligand bound (EM^L) (type-1 site of NiR M150G [2]): < 225 mV
effect of external ligand on catalytic activity of NiR M150G (NiR M150G): restored the activity up to the level of wt NiR
kcat^sat of NiR M150G saturated with external ligand (NiR M150G): 374 ± 28 s⁻¹

CC#N [acetonitrile]
Kd (type-1 site of NiR M150G [1]): 71.5 ± 7.3 mM
increase of catalytic activity (wt NiR; wt NiR): 50%
kcat^sat of NiR M150G saturated with external ligand (NiR M150G): >390^A s^−1

CSC [dimethylsulfide]
Kd (type-1 site of NiR M150G [1]): 21 ± 4 mM
Kd (NiR M150G): 34 ± 7 mM
effect of external ligand on catalytic activity of NiR M150G (NiR M150G): restored the activity up to the level of wt NiR
kcat^sat of NiR M150G saturated with external ligand (NiR M150G): 373 ± 22 s⁻¹

CCSC [ethylmethylsulfide]
Kd (type-1 site of NiR M150G [1]): 14 ± 6 mM
effect of external ligand on catalytic activity of wt NiR (wt NiR): constant activity
Kd (NiR M150G): > 73 mM
effect of external ligand on catalytic activity of NiR M150G (NiR M150G): activity doubled
kcat^sat of NiR M150G saturated with external ligand (NiR M150G): >292 s⁻¹

NC=O [formamide]
effect of external ligand on catalytic activity of wt NiR (wt NiR): constant activity
effect of external ligand on catalytic activity of NiR M150G (NiR M150G): activity doubled
kcat^sat of NiR M150G saturated with external ligand (NiR M150G): >255 s⁻¹

c1c[nH]cn1 [imidazole]
Kd (type-1 site of NiR M150G [1]): 52 ± 3 mM
rate of slow spectral change (absorption at 430 nm versus time, single exponential) (type-1 site of NiR M150G [1]; NiR M150G with imidazole 260 mM, 25° C.): 0.823 ± 0.003 h⁻¹
effect of external ligand on catalytic activity of wt NiR (wt NiR): decreased in activity
effect of external ligand on catalytic activity of NiR M150G (NiR M150G): decreased in activity

c1ccncc1 [pyridine]
fitted reduction potential with ligand bound (EM^L) (type-1 site of NiR M150G [2]): < 245 mV

nitrite reductase M150G from Alcaligenes faecalis S-6
kcat^sat (oxidation of pseudoazurin, no external ligand) (pseudoazurin [3]): 133 s⁻¹
kcat^sat (oxidation of pseudoazurin, saturated with acetamide) (pseudoazurin [3]): 374 s⁻¹
kcat^sat (oxidation of pseudoazurin, saturated with dimethylsulfide) (pseudoazurin [3]): 373 s⁻¹
kcat^sat (oxidation of pseudoazurin, with acetonitrile) (pseudoazurin [3]): >390^A
kcat^sat (oxidation of pseudoazurin, with ethylmethylsulfide) (pseudoazurin [3]): > 292 s⁻¹
kcat^sat (oxidation of pseudoazurin, with formamide) (pseudoazurin [3]): > 255 s⁻¹

nitrite reductase M150H from Alcaligenes faecalis S-6
kcat^sat (oxidation of pseudoazurin, no external ligand) (pseudoazurin [3]): 0.099 s⁻¹

nitrite reductase M150T from Alcaligenes faecalis S-6
kcat^sat (oxidation of pseudoazurin, no external ligand) (pseudoazurin [3]): 126 s⁻¹

B1: Achromobacter cycloclastes NiR M150Q: literature Met150Gln mutant of Achromobacter cycloclastes nitrite reductase (protein, UniProt P25006 39-378, looked up, variant M150Q)
Copper-containing nitrite …: AAGAAPVDISTLPRVKVDLVKPPFVHAHDQVAKTGPRVVEFTMTIEEKKLVIDREGTEIHAMTFNGSVPGPLMVVHENDYVELRLINPDTNTLLHNIDFHAATGALGGGALTQVNPGEETTLRFKATKPGVFVYHCAPEGMVPWHVTSGQNGAIMVLPRDGLKDEKGQPLTYDKIYYVGEQDFYVPKDEAGNYKKYETPGEAYEDAVKAMRTLTPTHIVFNGAVGALTGDHALTAAVGERVLVVHSQANRDTRPHLIGGHGDYVWATGKFRNPPDLDQETWLIPGGTAGAAFYTFRQPGVYAYVNHNLIEAFELGAAGHFKVTGEWNDDLMTSVVKPASM
electron transfer rate (literature) [4]: decreased below the detection limit

B2: wild-type Cu-containing nitrite reductase from Alcaligenes faecalis S-6 (protein)
chain: QGAVRKATAAEIAALPRQKVELVDPPFVHAHSQVAEGGPKVVEFTMVIEEKKIVIDDAGTEVHAMAFNGTVPGPLMVVHQDDYLELTLINPETNTLMHNIDFHAATGALGGGGLTEINPGEKTILRFKATKPGVFVYHCAPPGMVPWHVVSGMNGAIMVLPREGLHDGKGKALTYDKIYYVGEQDFYVPRDENGKYKKYEAPGDAYEDTVKVMRTLTPTHVVFNGAVGALTGDKAMTAAVGEKVLIVHSQANRDTRPHLIGGHGDYVWATGKFNTPPDVDQETWFIPGGAAGAAFYTFQQPGIYAYVNHNLIEAFELGAAAHFKVTGEWNDDLMTSVLAPSGT
kcat^sat (pseudoazurin [5]): 416 ± 10 s⁻¹
kcat^sat (oxidation of pseudoazurin, no external ligand) (pseudoazurin, P04377): 416 s⁻¹
